For the test, the system named is P. falciparum Dd2 strain. The class given is cell-based, Plasmodium falciparum. The settings on record: single dose, 72 h in vitro treatment; Fig. 1B; normalized to non-treated cultures.

In the case of poly-L-glutamate, the “parasite growth inhibition (in words)” value is on record as “parasite growth inhibition was not observed”.
